Source: publication PMC10598577 (JACS Au, 2023)
“Also recorded” adds a separate entry of the source.

Columns and labels:
[1] = target: MopR M100V_L119V (Acinetobacter guillouiae, UniProt Q43965, L119V/M100V); assay: biochemical
[2] = system: MopR M100K_L119D; details: salt bridge mutant M100K_L119D, ligand phenol
[3] = target: MopR M100Q_L119N (Acinetobacter guillouiae, UniProt Q43965, L119N/M100Q); assay: biochemical
[4] = target: MopR H106A; details: cited from earlier work
[5] = system: MopR second barrier residues (F99, F132) mutated to leucine; details: F99, F132 mutated to nonaromatic leucine, ligand phenol
[6] = target: T1, wild type MopR (Acinetobacter guillouiae, UniProt Q43965); assay: biochemical
T1 sequence (Q43965 1-229): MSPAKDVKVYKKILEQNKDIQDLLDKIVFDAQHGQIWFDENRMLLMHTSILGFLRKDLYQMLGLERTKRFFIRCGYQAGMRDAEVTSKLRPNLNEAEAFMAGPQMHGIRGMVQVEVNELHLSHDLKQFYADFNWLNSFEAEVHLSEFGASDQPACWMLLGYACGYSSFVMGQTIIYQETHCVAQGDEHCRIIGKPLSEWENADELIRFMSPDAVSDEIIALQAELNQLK

[7] = target: MopR M100K_V116D (Acinetobacter guillouiae, UniProt Q43965, M100K/V116D); details: salt bridge mutant M100K_V116D, ligand phenol
[8] = target: MopR M100Q_V116N (Acinetobacter guillouiae, UniProt Q43965, M100Q/V116N); assay: biochemical
[9] = target: MopR W134A; details: cited from earlier work
[10] = target: T1, wild type MopR; details: wild type MopR sensor domain; previous ITC studies; cited from earlier work

| SMILES | Kd [1] | binding (ITC) [2] | Kd [3] | Kd [4] | binding affinity (ITC) [5] | Kd [6] | binding (ITC) [7] | Kd [8] | Kd [9] | ligand selection profile of MopR (binding, in words) [10] |
| --- | --- | --- | --- | --- | --- | --- | --- | --- | --- | --- |
| Oc1ccccc1 [phenol] | 0.45 ± 0.06 µM | no detectable binding | 2.7 ± 0.5 µM | 7.86 ± 0.01 µM | significantly decrease the binding affinity | 0.46 ± 0.06 µM | no detectable binding | 4.35 ± 0.07 µM | 2.87 ± 0.01 µM | – |
| c1ccccc1 [benzene] | – | – | – | – | – | – | – | – | – | significantly decreased affinity; also recorded: little or negligible binding |
